Assay results as given in patent US12448358B2, “Inhibitors of protein arginine deiminase 1 and methods of preparation and use thereof” (University of Massachusetts, priority 2019, dated 2025).

Key:
[1] = target: T1, PAD1 (Mus musculus, UniProt Q9Z185); experiment: Histone H3 citrullination in mouse embryos (immunofluorescence, confocal microscopy); type: cell-based; conditions: mouse embryos at the 4-cell stage, 100 μM inhibitor
T1 construct: endogenously expressed cellular PAD1 in mouse zygotes; endogenous in cells; host or cells: ICR mouse zygotes / 4-cell embryos from in vitro fertilization
T1 sequence (Q9Z185 1-662): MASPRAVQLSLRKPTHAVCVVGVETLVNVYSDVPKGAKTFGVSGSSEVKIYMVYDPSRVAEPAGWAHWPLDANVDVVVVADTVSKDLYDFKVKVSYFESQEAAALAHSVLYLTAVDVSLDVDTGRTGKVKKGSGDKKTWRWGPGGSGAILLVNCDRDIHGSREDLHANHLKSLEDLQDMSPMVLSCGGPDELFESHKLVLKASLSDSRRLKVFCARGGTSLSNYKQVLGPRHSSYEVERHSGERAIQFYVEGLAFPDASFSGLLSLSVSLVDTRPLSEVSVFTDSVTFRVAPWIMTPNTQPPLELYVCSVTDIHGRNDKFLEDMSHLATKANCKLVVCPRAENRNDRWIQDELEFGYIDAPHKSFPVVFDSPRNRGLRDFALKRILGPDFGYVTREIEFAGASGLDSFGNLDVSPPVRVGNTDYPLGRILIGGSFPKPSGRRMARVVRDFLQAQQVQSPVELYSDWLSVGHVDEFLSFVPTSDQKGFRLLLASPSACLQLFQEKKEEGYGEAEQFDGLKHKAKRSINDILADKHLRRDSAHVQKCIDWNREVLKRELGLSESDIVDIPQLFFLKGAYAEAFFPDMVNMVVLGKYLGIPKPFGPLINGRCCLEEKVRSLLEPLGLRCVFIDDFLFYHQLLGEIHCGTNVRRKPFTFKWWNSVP
Experimental: (§1) In Vitro Fertilization. Female ICR mice (4-6 weeks) were injected intraperitoneally with 10 international units (IU) of pregnant mare serum gonadotropin (PMSG) and after 46 h, 10 IU of human chorionicgonadotropin (hCG). After 16 h, cumulus masses were released from oviducts into HEPES-buffered HTF culture medium (HTF) (InVitro Care, Frederick, MD). Cauda epididymal mouse spermatozoa were released and placed in drops of HTF culture medium (InVitro Care). Then the sperm suspensions were added to the cumulus mass drops with a final concentration of approximately 1-3×10^5/mL. Zygotes were collected and transferred to KSOM medium containing 100 μM PAD1 inhibitor or equal volume of DMSO as a control. Then 4-cell and blastocyst stage embryos were collected after 48 and 100 h of culture, respectively.
Immunofluorescent and Confocal Microscopy. Embryos were fixed in 4% paraformaldehyde in PBS (pH 7.4) for 30 min and then permeabilized in 0.5% Triton X-100 for 30 min at room temperature. After blocking in 1% BSA/PBS at room temperature for 1 h, samples were incubated with anti-H3Cit2/8/17 antibody (Catalogue no. ab77164, Abcam) (1:100) at 4° C. for 12 h. After five washes, samples were incubated with FITC-conjugated secondary antibody for 1 h at room temperature. Nuclei were counterstained with DAPI for 5 min. […]

[2] = test system: HEK293TPAD1 cells; experiment: Cytotoxicity studies (XTT) in HEK293TPAD1 cells; type: cell-based, human; conditions: cytotoxicity EC50 (XTT, 24 h) over EC50 for histone H3 citrullination
Experimental: Cytotoxicity Studies. HEK293TPAD1 cells were seeded (2×10^4 cells/well) on 96-well plate and were allowed to grow in DMEM (supplemented with 10% heat-inactivated fetal bovine serum, 100 units/mL penicillin, 100 μg/mL streptomycin and 0.15 mg/mL hygromycin B) for 24 h. Cells were then treated with DMSO or various concentrations of inhibitor at 37° C. for 24 h. Activated XTT reagent (ATCC) was added to each well and cells were further incubated at 37° C. for 5 h. Cell viability was measured by recording the absorbance at 475 nm and 660 nm. Equation 3, Y=Bottom+(Top−Bottom)/[1+10^((logEC50-X)*Hillslope)] (3), was used to fit an eight-point dose-response curve to determine the EC50 values for inhibition of cell-proliferation using GraphPad Prism 7.03. Top and Bottom are plateaus of the dose-response curve, X is the log of inhibitor-concentration, Hillslope is the slope factor or Hill slope. All the experiments were performed at least in triplicate.

[3] = test system: pronuclear mouse zygotes; experiment: Early embryo development of pronuclear mouse zygotes; type: cell-based; conditions: 100 μM inhibitor, 100 h of culture, 87% of control zygotes reached blastocyst stage
Experimental: as §1

[4] = target: T2, PAD1 (Homo sapiens, UniProt Q9ULC6); experiment: Histone H3 citrullination in HEK293TPAD1 cells; type: cell-based; conditions: 1 mM CaCl2, 5 μM ionomycin, 3 h, read-out: EC50 of inhibition of histone H3 citrullination
T2 construct: made in house
T2 sequence (Q9ULC6 1-663): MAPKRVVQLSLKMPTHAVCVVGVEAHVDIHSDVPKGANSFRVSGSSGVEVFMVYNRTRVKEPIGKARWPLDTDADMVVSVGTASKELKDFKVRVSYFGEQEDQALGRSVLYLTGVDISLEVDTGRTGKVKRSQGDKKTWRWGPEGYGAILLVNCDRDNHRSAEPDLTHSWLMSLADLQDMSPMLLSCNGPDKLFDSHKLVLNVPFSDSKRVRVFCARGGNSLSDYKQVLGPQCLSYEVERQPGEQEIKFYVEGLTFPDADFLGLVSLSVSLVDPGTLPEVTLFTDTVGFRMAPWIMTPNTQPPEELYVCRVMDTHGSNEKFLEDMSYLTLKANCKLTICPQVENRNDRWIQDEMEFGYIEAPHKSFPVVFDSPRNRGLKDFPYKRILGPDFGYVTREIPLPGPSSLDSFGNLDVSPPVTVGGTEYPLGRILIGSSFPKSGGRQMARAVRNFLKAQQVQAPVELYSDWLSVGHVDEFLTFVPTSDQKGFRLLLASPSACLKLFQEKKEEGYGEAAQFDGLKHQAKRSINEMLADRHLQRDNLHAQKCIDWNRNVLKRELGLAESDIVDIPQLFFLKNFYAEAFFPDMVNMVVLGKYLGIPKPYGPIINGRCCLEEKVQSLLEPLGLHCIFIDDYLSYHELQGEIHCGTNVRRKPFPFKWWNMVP
Experimental: The final concentration of DMSO in each well was 1%. […] All the experiments were performed at least in duplicate.

| SMILES | Inhibition of histone H3 citrullination in embryos [1] | Efficacy Index (the ratio of cytotoxicity to EC50) [2] | Effect on early embryo development [3] | EC50 [4] [µM] |
| --- | --- | --- | --- | --- |
| N=C(CF)NCCC[C@H](NC(=O)c1cc(I)c(F)c(I)c1O)c1nc2ccccc2[nH]1 [Compound 19] | dramatically inhibit histone H3 citrullination | 10 | dramatic arrest of embryo development at the morula stage | 31.8 |
| N=C(CF)NCCC[C@H](NC(=O)c1cc(I)cc(I)c1O)c1nc2ccccc2[nH]1 [Compound 1] | dramatically inhibit histone H3 citrullination | 17 | dramatic arrest of embryo development at the morula stage | 14.5 |
